Data as given in patent publication US9717241B2, “Increased tolerance of DHT-enabled plants to auxinic herbicides resulting from moiety differences in auxinic herbicide molecular structures” (priority 2011, dated 2017).

What was measured:
[1] = system: AAD-1 cotton; assay: Crop injury over time on AAD-1 cotton, field experiment near Tifton, Ga.; format: in vivo, Cotton (Gossypium spp.); settings: n = 3 plots
Protocol: (§1) By “injury” it is meant the percentage of foliage that is epinastic (has leaf droop, leaf rolling, petiole curvature) as visually assessed by one skilled in the art. The reduced injury from 2,4-DB relative to 2,4-D is observable within minutes after application of these herbicides and continues to be observable for an extended time period thereafter, such as from 2 hrs after application to 30 days after application, including 3 hours after application to 19 days after application and further including 6 hours after application to 24 hours after application.
(§2) To evaluate the tolerance of AAD-1-cotton plants to the effects of 2,4-DB and 2,4-D herbicide compounds, the herbicides Butyrac 200 (2,4-DB) and Weedar 64 (2,4-D) were applied individually by broadcast spraying over AAD-1-cotton plants in two field experiments.
Another experiment was conducted at one field location at the University of Georgia Ponder Farm, near Tifton, Ga. The experimental design was three replications with plots in randomized complete blocks. Each plot had AAD-1-cotton plants in one row that was 25 feet in length. Cotton plants were targeted at […] in height (6-leaf stage) for single-application treatment. Treatments consisted of Butyrac 200 (2,4-DB) applied at 280, 560, 1120, and 2240 g ae ha; and Weedar 64 (2,4-D) applied at 560 and 1120 g ae/ha. AAD-1-cotton plants were visually assessed for the percentage of foliage showing herbicide-related injury on days—0, 1, 2, 19, and 45 after application.

[2] = system: AMAPA; assay: Weed control in AAD-1 cotton field plots; format: in vivo, Amaranthus palmeri; settings: 1120 g ae/ha, 3 WAA (maximum control), n = 36 plots
Protocol: (§3) An experiment to compare the efficacies of 2,4-DB and 2,4-D to control weeds in AAD-1 cotton was conducted at nine field sites located near Greenville, Miss. (3 locations); Chula, Ga.; Macon County, Ga.; Attapulgus, Ga.; Memphis, Tenn.; Newport, Ark.; and Fresno, Calif. The experimental design was four replications per site with treatment plots in randomized complete blocks. Each plot had AAD-1-cotton plants in two rows that were 20 feet in length. Weed and cotton plants were targeted at two to six inches in height for a single-application treatment. Treatments consisted of Butyrac 200 (2,4-DB) and Weedar 64 (2,4-D) applied to plots at 560, 840, and 1120 g ae/ha. Weed species were visually assessed once per week for three weeks after herbicide application for the percentage plants (0-100%, where 0 represents no activity or a control and 100% represents death of the target plant) killed or showing severe herbicide-related injury.
(§4) For nearly all targeted species and for each week of measurement, greater levels of control were obtained with increasing application rates of 2,4-DB or 2,4-D, with the greatest control from 1120 g ae/ha. Therefore, based on efficacy, 1120 g ae/ha is the preferred application rate of the three rates tested to control weeds in AAD-1 cotton. At 1120 g ae/ha, control was classified as either ≦80%, >80%, or >90% of weed plants killed or seriously injured.

[3] = system: IAQTA; assay: Weed control in AAD-1 cotton field plots; format: in vivo; settings: 1120 g ae/ha, 2 WAA (maximum control), n = 36 plots
Protocol: as §3, §4

[4] = system: ACCOS; assay: Weed control in AAD-1 cotton field plots; format: in vivo; settings: 1120 g ae/ha, 3 WAA (maximum control), n = 36 plots
Protocol: as §3, §4

[5] = system: SIDSP; assay: Weed control in AAD-1 cotton field plots; format: in vivo; settings: 1120 g ae/ha, 3 WAA (maximum control), n = 36 plots
Protocol: as §3, §4

[6] = system: ACNHI; assay: Weed control in AAD-1 cotton field plots; format: in vivo; settings: 1120 g ae/ha, 2 WAA (maximum control), n = 36 plots
Protocol: as §3, §4

[7] = system: CASOB; assay: Weed control in AAD-1 cotton field plots; format: in vivo; settings: 1120 g ae/ha, 3 WAA (maximum control), n = 36 plots
Protocol: as §3, §4

[8] = system: SOLNI; assay: Weed control in AAD-1 cotton field plots; format: in vivo; settings: 1120 g ae/ha, 3 WAA (maximum control), n = 36 plots
Protocol: as §3, §4

[9] = system: IPOSS; assay: Weed control in AAD-1 cotton field plots; format: in vivo; settings: 1120 g ae/ha, 3 WAA (maximum control), n = 36 plots
Protocol: as §3, §4

[10] = system: AMARE; assay: Weed control in AAD-1 cotton field plots; format: in vivo; settings: 1120 g ae/ha, 3 WAA (maximum control), n = 36 plots
Protocol: as §3, §4

[11] = system: RCHSC; assay: Weed control in AAD-1 cotton field plots; format: in vivo; settings: 1120 g ae/ha, 3 WAA (maximum control), n = 36 plots
Protocol: as §3, §4

[12] = system: SEBEX; assay: Weed control in AAD-1 cotton field plots; format: in vivo; settings: 1120 g ae/ha, 3 WAA (maximum control), n = 36 plots
Protocol: as §3, §4

[13] = system: IPOHG; assay: Weed control in AAD-1 cotton field plots; format: in vivo; settings: 1120 g ae/ha, 2 WAA (maximum control), n = 36 plots
Protocol: as §3, §4

[14] = system: AAD-12 cotton; assay: Crop injury over time on AAD-12 cotton, greenhouse experiment; format: in vivo, Cotton (Gossypium spp.); settings: n = 4 plants
Protocol: as §1
To evaluate the tolerance of AAD-12-cotton plants to the effects of 2,4-DB and 2,4-D herbicide compounds, the herbicides DB Straight (2,4-DB) and Weedar 64 (2,4-D) were applied individually by spraying over AAD-12-cotton plants in one greenhouse experiment. The four treatments consisted of two application rates, 1120 and 2240 g ae/ha, for each of the two herbicides. The experimental design was four replications of single AAD-12-cotton plants per treatment. The plants were grown in pots. Treatments were not randomized. Plants were at the 3- to 4-leaf stage when sprayed. The sprayed AAD-12-cotton plants were visually assessed for the percentage of foliage showing herbicide-related injury on days-0, 1, 2, 4, and 12 after application.

[15] = system: AMASS; assay: Weed control in AAD-1 cotton field plots; format: in vivo, All Amaranthus species excluding AMAPA; settings: 1120 g ae/ha, 3 WAA (maximum control), n = 36 plots
Protocol: as §3, §4

[16] = system: AAD-1 cotton; assay: Crop injury on AAD-1 cotton, field experiment at four locations; format: in vivo, Cotton (Gossypium spp.); settings: epinastic foliage per plot, n = 16 plots
Protocol: as §1, §2
One experiment was conducted at four field locations near Greenville, Miss.; Brinson, Ga.; Memphis, Tenn.; and Fresno, Calif. The experimental design was four replications per site with treatment plots in randomized complete blocks. Each plot had AAD-1-cotton plants in two rows that were 20 feet in length. Cotton plants were targeted at two to four inches in height for single-application treatment. Treatments consisted of Butyrac 200 (2,4-DB) applied at 560, 840, 1120, 1680, and 2240 g ae/ha; and Weedar 64 (2,4-D) applied at 840 and 1120 g ae/ha. AAD-1-cotton plants were visually assessed for the percentage of foliage showing herbicide-related injury one day after application.

Structure (SMILES): O=C(O)CCCOc1ccc(Cl)cc1Cl [2,4-DB, 4-(2,4-dichlorophenoxy) butyric acid]
- Mean Injury (%) ([1]; 280 g ae/ha, 0 DAA): 1.7 a %
- Mean Injury (%) ([1]; 280 g ae/ha, 1 DAA): 0.7 a %
- Mean Injury (%) ([1]; 280 g ae/ha, 2 DAA): 1.3 ab %
- Mean Injury (%) ([1]; 280 g ae/ha, 19 DAA): 0.0 a %
- Mean Injury (%) ([1]; 280 g ae/ha, 45 DAA): 0.0 a %
- Mean Injury (%) ([1]; 560 g ae/ha, 0 DAA): 2.7 a %
- Mean Injury (%) ([1]; 560 g ae/ha, 1 DAA): 0.0 a %
- Mean Injury (%) ([1]; 560 g ae/ha, 2 DAA): 0.7 a %
- Mean Injury (%) ([1]; 560 g ae/ha, 19 DAA): 0.7 a %
- Mean Injury (%) ([1]; 560 g ae/ha, 45 DAA): 0.0 a %
- Mean Injury (%) ([1]; 1120 g ae/ha, 0 DAA): 5.0 ab %
- Mean Injury (%) ([1]; 1120 g ae/ha, 1 DAA): 0.7 a %
- Mean Injury (%) ([1]; 1120 g ae/ha, 2 DAA): 1.3 ab %
- Mean Injury (%) ([1]; 1120 g ae/ha, 19 DAA): 0.0 a %
- Mean Injury (%) ([1]; 1120 g ae/ha, 45 DAA): 1.7 a %
- Mean Injury (%) ([1]; 2240 g ae/ha, 0 DAA): 9.3 b %
- Mean Injury (%) ([1]; 2240 g ae/ha, 1 DAA): 2.0 a %
- Mean Injury (%) ([1]; 2240 g ae/ha, 2 DAA): 3.3 abc %
- Mean Injury (%) ([1]; 2240 g ae/ha, 19 DAA): 0.7 a %
- Mean Injury (%) ([1]; 2240 g ae/ha, 45 DAA): 0.0 a %
- Percentage Control of Target Weeds [2]: 81%
- Percentage Control of Target Weeds [3]: 99%
- Percentage Control of Target Weeds [4]: 88%
- Percentage Control of Target Weeds [5]: 84%
- Percentage Control of Target Weeds [6]: 99%
- Percentage Control of Target Weeds [7]: 100%
- Percentage Control of Target Weeds [8]: 89%
- Percentage Control of Target Weeds [9]: 99%
- Percentage Control of Target Weeds [10]: 89%
- Percentage Control of Target Weeds [11]: 99%
- Percentage Control of Target Weeds [12]: 89%
- Percentage Control of Target Weeds [13]: 100%
- Mean Injury (%) ([14]; 1120 g ae/ha, 0 DAA): 0.0 a %
- Mean Injury (%) ([14]; 1120 g ae/ha, 1 DAA): 1.8 ab %
- Mean Injury (%) ([14]; 1120 g ae/ha, 2 DAA): 0.0 a %
- Mean Injury (%) ([14]; 1120 g ae/ha, 4 DAA): 1.0 b %
- Mean Injury (%) ([14]; 1120 g ae/ha, 12 DAA): 1.0 a %
- Mean Injury (%) ([14]; 2240 g ae/ha, 0 DAA): 0.0 a %
- Mean Injury (%) ([14]; 2240 g ae/ha, 1 DAA): 0.0 b %
- Mean Injury (%) ([14]; 2240 g ae/ha, 2 DAA): 0.0 a %
- Mean Injury (%) ([14]; 2240 g ae/ha, 4 DAA): 0.5 b %
- Mean Injury (%) ([14]; 2240 g ae/ha, 12 DAA): 3.3 a %
- Percentage Control of Target Weeds [15]: 77%
- Mean Injury 1 DAA, Injury (%) ([16]; 560 g ae/ha post-emergence): 2.3%
- Mean Injury 1 DAA, Injury (%) ([16]; 840 g ae/ha post-emergence): 4.1%
- Mean Injury 1 DAA, Injury (%) ([16]; 1120 g ae/ha post-emergence): 2.8%
- Mean Injury 1 DAA, Injury (%) ([16]; 1680 g ae/ha post-emergence): 4.5%
- Mean Injury 1 DAA, Injury (%) ([16]; 2240 g ae/ha post-emergence): 6.3%

Structure (SMILES): O=C(O)COc1ccc(Cl)cc1Cl [2,4-D]
- Mean Injury (%) ([1]; 560 g ae/ha, 0 DAA): 6.7 ab %
- Mean Injury (%) ([1]; 560 g ae/ha, 1 DAA): 6.7 b %
- Mean Injury (%) ([1]; 560 g ae/ha, 2 DAA): 4.0 bc %
- Mean Injury (%) ([1]; 560 g ae/ha, 19 DAA): 1.7 a %
- Mean Injury (%) ([1]; 560 g ae/ha, 45 DAA): 3.3 a %
- Mean Injury (%) ([1]; 1120 g ae/ha, 0 DAA): 23.3 c %
- Mean Injury (%) ([1]; 1120 g ae/ha, 1 DAA): 14.0 c %
- Mean Injury (%) ([1]; 1120 g ae/ha, 2 DAA): 4.7 c %
- Mean Injury (%) ([1]; 1120 g ae/ha, 19 DAA): 5.0 b %
- Mean Injury (%) ([1]; 1120 g ae/ha, 45 DAA): 2.3 a %
- Percentage Control of Target Weeds [2]: 89%
- Percentage Control of Target Weeds [3]: 99%
- Percentage Control of Target Weeds [4]: 90%
- Percentage Control of Target Weeds [5]: 89%
- Percentage Control of Target Weeds [6]: 99%
- Percentage Control of Target Weeds [7]: 98%
- Percentage Control of Target Weeds [8]: 93%
- Percentage Control of Target Weeds [9]: 99%
- Percentage Control of Target Weeds [10]: 93%
- Percentage Control of Target Weeds [11]: 97%
- Percentage Control of Target Weeds [12]: 88%
- Percentage Control of Target Weeds [13]: 100%
- Mean Injury (%) ([14]; 1120 g ae/ha, 0 DAA): 0.5 a %
- Mean Injury (%) ([14]; 1120 g ae/ha, 1 DAA): 2.3 ab %
- Mean Injury (%) ([14]; 1120 g ae/ha, 2 DAA): 3.0 a %
- Mean Injury (%) ([14]; 1120 g ae/ha, 4 DAA): 3.0 b %
- Mean Injury (%) ([14]; 1120 g ae/ha, 12 DAA): 3.0 a %
- Mean Injury (%) ([14]; 2240 g ae/ha, 0 DAA): 1.3 a %
- Mean Injury (%) ([14]; 2240 g ae/ha, 1 DAA): 4.3 a %
- Mean Injury (%) ([14]; 2240 g ae/ha, 2 DAA): 3.8 a %
- Mean Injury (%) ([14]; 2240 g ae/ha, 4 DAA): 6.8 a %
- Mean Injury (%) ([14]; 2240 g ae/ha, 12 DAA): 3.0 a %
- Percentage Control of Target Weeds [15]: 92%
- Mean Injury 1 DAA, Injury (%) ([16]; 840 g ae/ha post-emergence): 7.4%
- Mean Injury 1 DAA, Injury (%) ([16]; 1120 g ae/ha post-emergence): 13.0%
